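Tested at 5 concentrations; 48 h exposure; 96-well plates; endpoints linearly interpolated, else capped at highest concentration. At the GI50, growth is halved. At the TGI there is no net growth.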

GI50 and TGI data for nine molecules are collected here from PubChem BioAssay (NCI).

Test systems include NCI/ADR-RES ovarian; OVCAR-8 ovarian; UACC-62 melanoma; A498 renal; HOP-62 NSCLC; IGROV1 ovarian; SNB-19 CNS; EKVX NSCLC; UO-31 renal; HCT-15 colon.
Assay in all cases: NCI tumour cell line growth inhibition, 48 h

As for `COc1ccc2nc3ccc(OC)cc3c(SCCCN)c2c1`, the GI50 with NCI/ADR-RES ovarian is 13.1 µM; in the assay on OVCAR-8 ovarian it was 5.13 µM; with UACC-62 melanoma, 12 µM; in the assay with A498 renal it was 19.4 µM; with HOP-62 NSCLC, 20.3 µM; in the assay with IGROV1 ovarian it was 8.46 µM. For the same molecule, the GI50 with SNB-19 CNS is 14.4 µM; with EKVX NSCLC, 15.9 µM; in the assay with UO-31 renal it was 3.91 µM; with HCT-15 colon, 3.17 µM. The TGI was 37.1 µM in the assay with NCI/ADR-RES ovarian; 12.9 µM in the assay on OVCAR-8 ovarian; 39.4 µM in the assay with UACC-62 melanoma; 56.5 µM with A498 renal; 45.8 µM in the assay with HOP-62 NSCLC; 27.2 µM in the assay with IGROV1 ovarian. Moreover, the TGI stood at 36.7 µM in the assay on SNB-19 CNS, 35.6 µM with EKVX NSCLC, 18.3 µM with UO-31 renal and 20.2 µM in the assay with HCT-15 colon.
`c1ccc2c(c1)nc(NCCN1CCNCC1)c1c3ccccc3[nH]c21`: the GI50 in the assay on NCI/ADR-RES ovarian is 1.52 µM; with OVCAR-8 ovarian it was 0.111 µM; in the assay on UACC-62 melanoma it was 1.76 µM; in the assay with A498 renal it was 1.56 µM; with HOP-62 NSCLC, 0.404 µM; in the assay with IGROV1 ovarian it was 0.84 µM. Further, the GI50 with SNB-19 CNS is 0.381 µM; with EKVX NSCLC, 0.742 µM; with UO-31 renal it was 0.567 µM; with HCT-15 colon, 0.176 µM. Further, the TGI worked out at 7.63 µM in the assay on NCI/ADR-RES ovarian; 0.883 µM in the assay with OVCAR-8 ovarian; 3.69 µM in the assay on UACC-62 melanoma; 3.27 µM in the assay with A498 renal; 2.2 µM in the assay on HOP-62 NSCLC; 8.18 µM in the assay with IGROV1 ovarian. Besides, the TGI was 3.15 µM with SNB-19 CNS, 4.38 µM in the assay with EKVX NSCLC, 2.05 µM in the assay on UO-31 renal and 0.7 µM in the assay on HCT-15 colon.
For `Oc1cccc(-c2nc3ccccc3s2)c1`, the TGI is 68.8 µM in the assay with NCI/ADR-RES ovarian; greater than 100 µM in the assay on OVCAR-8 ovarian; greater than 100 µM in the assay on UACC-62 melanoma; greater than 100 µM in the assay on A498 renal; greater than 100 µM in the assay on HOP-62 NSCLC; 63.8 µM with IGROV1 ovarian. In addition, the TGI is greater than 100 µM with SNB-19 CNS, 42.7 µM with EKVX NSCLC, greater than 100 µM in the assay with UO-31 renal and greater than 100 µM in the assay with HCT-15 colon.
As for `C[C@@H](NC(=O)Cc1cc(F)cc(F)c1)C(=O)N[C@@]1(C)N=C(c2ccccc2)c2ccccc2N(C)C1=O`, the GI50 in the assay on NCI/ADR-RES ovarian was 31.9 µM; with OVCAR-8 ovarian, 65.1 µM; in the assay on UACC-62 melanoma, 32.4 µM; with A498 renal it was 1.13 µM; with HOP-62 NSCLC, 64.7 µM; with IGROV1 ovarian, greater than 65.6 µM. Besides, the GI50 with SNB-19 CNS is greater than 100 µM; in the assay on EKVX NSCLC, 30.2 µM; with UO-31 renal, 30.5 µM; in the assay with HCT-15 colon, greater than 78.1 µM. The TGI in the assay on NCI/ADR-RES ovarian is greater than 90.7 µM; in the assay with OVCAR-8 ovarian it was greater than 100 µM; in the assay with UACC-62 melanoma, greater than 89 µM; in the assay on A498 renal, 42.6 µM; with HOP-62 NSCLC, greater than 100 µM; with IGROV1 ovarian, greater than 100 µM. The TGI in the assay with SNB-19 CNS was greater than 100 µM; with EKVX NSCLC, greater than 85.8 µM; in the assay with UO-31 renal, greater than 100 µM; in the assay on HCT-15 colon it was greater than 100 µM.
For the molecule `CCOC(=O)c1[nH]c2c(c1C)-c1[nH]c(=O)c(S(=O)(=O)c3ccccc3)cc1SC2`, the GI50 in the assay with NCI/ADR-RES ovarian is 52.9 µM; with OVCAR-8 ovarian, 37.7 µM; in the assay on UACC-62 melanoma, 46.7 µM; in the assay with A498 renal it was 1.68 µM; in the assay on HOP-62 NSCLC it was 44.3 µM; in the assay with IGROV1 ovarian, 21.3 µM. In addition, the GI50 is 81.1 µM in the assay on SNB-19 CNS, 38.8 µM with EKVX NSCLC, greater than 100 µM in the assay with UO-31 renal and greater than 100 µM with HCT-15 colon. Besides, the TGI with NCI/ADR-RES ovarian, in the assay with OVCAR-8 ovarian, in the assay on UACC-62 melanoma, in the assay with A498 renal, in the assay on HOP-62 NSCLC and in the assay with IGROV1 ovarian was greater than 100 µM in each case. Further, the TGI with SNB-19 CNS, in the assay with EKVX NSCLC, in the assay on UO-31 renal and in the assay with HCT-15 colon was greater than 100 µM throughout.
`COc1cc2oc3ccccc3c(=O)c2cc1CSc1ccccc1N`: the TGI with NCI/ADR-RES ovarian was greater than 70.9 µM; in the assay on OVCAR-8 ovarian it was greater than 100 µM; with UACC-62 melanoma it was greater than 66.9 µM; in the assay on A498 renal, greater than 73.5 µM; in the assay with HOP-62 NSCLC it was greater than 93.3 µM; in the assay on IGROV1 ovarian, greater than 100 µM. The TGI in the assay on SNB-19 CNS, with EKVX NSCLC and with HCT-15 colon was greater than 100 µM each time.
For `COc1ccc(C[C@H]2C[C@@H](O)[C@@H](C)C/C=C/Cc3cccc(O)c3C(=O)O2)cn1`, the GI50 with NCI/ADR-RES ovarian is 19.1 µM; with OVCAR-8 ovarian, 29.4 µM; with UACC-62 melanoma, 22.1 µM; in the assay with A498 renal, 0.712 µM; with HOP-62 NSCLC it was 18.6 µM; in the assay with IGROV1 ovarian it was 13 µM. The GI50 in the assay with SNB-19 CNS is 38.9 µM; in the assay with EKVX NSCLC it was 32.1 µM; in the assay on UO-31 renal, 19.9 µM; in the assay with HCT-15 colon, 28.9 µM. The TGI is 48.8 µM in the assay with NCI/ADR-RES ovarian; greater than 100 µM in the assay on OVCAR-8 ovarian; 64.2 µM with UACC-62 melanoma; 31.4 µM in the assay with A498 renal; 40.2 µM with HOP-62 NSCLC; 34.4 µM in the assay on IGROV1 ovarian. Besides, the TGI in the assay with SNB-19 CNS was greater than 100 µM; in the assay on EKVX NSCLC, greater than 100 µM; in the assay on UO-31 renal, 66.1 µM; in the assay with HCT-15 colon it was 88.8 µM.
In the case of `CC[C@@]1(OC(=O)CN)C(=O)OCc2c1cc1n(c2=O)Cc2cc3cc(N)ccc3nc2-1`, the GI50 was less than 0.0103 µM in the assay on NCI/ADR-RES ovarian; less than 0.01 µM in the assay on UACC-62 melanoma; 0.0322 µM in the assay on A498 renal; less than 0.01 µM with HOP-62 NSCLC; 0.0974 µM in the assay with IGROV1 ovarian; less than 0.01 µM in the assay with SNB-19 CNS. Further, the GI50 is 0.465 µM in the assay with EKVX NSCLC, less than 0.0113 µM in the assay with UO-31 renal and 0.153 µM in the assay on HCT-15 colon. Besides, the TGI with NCI/ADR-RES ovarian was 0.125 µM; in the assay on UACC-62 melanoma, 0.0994 µM; in the assay on A498 renal, 0.337 µM; with HOP-62 NSCLC, 0.847 µM; in the assay on IGROV1 ovarian, 1.39 µM; with SNB-19 CNS, greater than 100 µM. Further, the TGI in the assay on EKVX NSCLC was greater than 100 µM; in the assay on HCT-15 colon, greater than 20.3 µM.
For `CO[C@H]1C=C[C@]23c4cc5c(cc4CN(CC2O)[C@@H]3C1)OCO5` (stereo not given in full), the TGI worked out at 58.8 µM in the assay on NCI/ADR-RES ovarian; 38.5 µM in the assay with OVCAR-8 ovarian; 19.6 µM in the assay with UACC-62 melanoma; 9.66 µM in the assay with A498 renal; 26 µM with IGROV1 ovarian; 40.9 µM in the assay with SNB-19 CNS. In addition, the TGI in the assay with EKVX NSCLC is 52.2 µM; in the assay with UO-31 renal, 8.47 µM; in the assay on HCT-15 colon it was 24.9 µM.
